Data: patent EP0750903A1, “Deodorant composition” (Coöperatie Cosun U.A., priority 1995, dated 1997)

What was measured:
Assay in all cases: plate method, inhibition of growth on TSBA medium
Assay type in all cases: cell-based
Details in all cases: Table C; 1:50 dilution of an overnight culture; ester conc 400 ug/ml
[1] = system: Corynebacterium xerosis ATCC 373
Protocol: (§1) The tests reproduced below have been carried out on the basis of four strains which occur in the human armpit flora, viz. Micrococcus luteus ATCC 533, Staphylococcus epidermis ATCC 155, Corynebacterium xerosis ATCC 373 and Corynebacterium minutissimum ATCC 23348 (ATCC = American Type Culture Collection, Maryland 20852, USA).
(§2) The Micrococcus luteus strain has been incubated at 30°C and the other three strains at 37°C. All strains have been tested for purity and then frozen in glycerol in liquid nitrogen. In addition, the strains have been kept on plate (TSBA medium; TSBA = trypton soya broth (medium CM 129 of Oxoid Ltd. + 1% agar), and regularly re-inoculated (at least once a week).
(§3) The abovementioned sucrose-fatty acid esters have been used in concentrations of 400-800-1600-3200-6400 mg/l.
(§4) The plate method was made use of as test method. In this method, the medium was prepared in sucrose-fatty acid solutions in the above concentrations. The plate, which was provided with a TSBA medium (see above), was then inoculated with 100 µl of culture and incubated at the desired temperature (see above). In this connection, use was made of overnight cultures in TSB (= trypton soya broth) which have been inoculated in undiluted and diluted form.
(§5) The inhibition obtained in the test method of the growth of the respective strains is shown with the values 0 (no inhibition) and with 1, 2, 3, 4 or 5 plus signs, where + 0 - 20% inhibition ++ 20 - 40% inhibition +++ 40 - 60% inhibition ++++ 60 - 80% inhibition +++++ 80 - 100% inhibition.
(§6) A blank determination without sucrose-fatty acid solution on TSBA was used as a control (pos. cont. TSBA; see Tables A and B in Examples I and II).

[2] = system: Staphylococcus epidermis ATCC 155
Protocol: as §1, §2, §3, §4, §5, §6

[3] = system: Corynebacterium minutissimum ATCC 23348
Protocol: as §1, §2, §3, §4, §5, §6

[4] = system: Micrococcus luteus ATCC 533
Protocol: as §1, §2, §3, §4, §5, §6

Substance	inhibition of the growth, C.xerosis [1]	inhibition of the growth, S.epidermis [2]	inhibition of the growth, C.minutissimum [3]	inhibition of the growth, M.luteus [4]
sucrose hydroxystearate	+++++ (+++++ 80 - 100% inhibition)	0 (0 (no inhibition))	+++++ (+++++ 80 - 100% inhibition)	+++ (+++ 40 - 60% inhibition)
sucrose behenate	+++ (+++ 40 - 60% inhibition)	0 (0 (no inhibition))	+++++ (+++++ 80 - 100% inhibition)	0 (0 (no inhibition))
sucrose oleate	+++++ (+++++ 80 - 100% inhibition)	0 (0 (no inhibition))	+++++ (+++++ 80 - 100% inhibition)	+++ (+++ 40 - 60% inhibition)
lactitol stearate	+++++ (+++++ 80 - 100% inhibition)	0 (0 (no inhibition))	+++++ (+++++ 80 - 100% inhibition)	+++++ (+++++ 80 - 100% inhibition)
sorbitol stearate	0 (0 (no inhibition))	0 (0 (no inhibition))	+++++ (+++++ 80 - 100% inhibition)	0 (0 (no inhibition))
sucrose isostearate	+++++ (+++++ 80 - 100% inhibition)	0 (0 (no inhibition))	+++++ (+++++ 80 - 100% inhibition)	+ (+ 0 - 20% inhibition)
